Data taken from patent publication US20120122860A1, “SOLID FORMS OF SULFONAMIDES AND AMINO ACIDS” (Plexxikon, Inc., priority 2009, published 2012).

What was measured:
[1] = biological target: Src (Homo sapiens, UniProt P12931); experiment: Kinase activity assay, Src
[2] = biological target: T1, TEC (Homo sapiens, UniProt P42680); experiment: Kinase activity assay, TEC
T1 sequence (P42680 1-631): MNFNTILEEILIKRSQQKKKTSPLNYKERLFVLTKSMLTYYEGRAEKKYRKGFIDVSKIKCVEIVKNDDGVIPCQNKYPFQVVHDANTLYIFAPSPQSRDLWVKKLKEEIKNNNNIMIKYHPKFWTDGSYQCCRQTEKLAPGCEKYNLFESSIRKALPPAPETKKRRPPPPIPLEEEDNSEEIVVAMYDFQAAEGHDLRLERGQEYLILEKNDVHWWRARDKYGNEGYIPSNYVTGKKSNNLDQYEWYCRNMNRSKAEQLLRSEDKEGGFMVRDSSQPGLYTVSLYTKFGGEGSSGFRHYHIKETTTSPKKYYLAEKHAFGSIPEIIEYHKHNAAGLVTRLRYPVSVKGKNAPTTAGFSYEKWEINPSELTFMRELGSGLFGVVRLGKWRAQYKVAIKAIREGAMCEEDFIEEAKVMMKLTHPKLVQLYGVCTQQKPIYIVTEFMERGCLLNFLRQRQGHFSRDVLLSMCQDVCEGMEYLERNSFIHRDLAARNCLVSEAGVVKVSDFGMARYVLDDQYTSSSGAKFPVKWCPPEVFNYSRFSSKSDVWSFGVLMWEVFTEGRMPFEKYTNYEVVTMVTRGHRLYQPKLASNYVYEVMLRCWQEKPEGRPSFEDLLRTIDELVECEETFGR

[3] = biological target: PI3Kα (Homo sapiens, UniProt P42336); experiment: Kinase activity assay, PI3Kα
[4] = biological target: Kit (Homo sapiens, UniProt P10721); experiment: Kinase activity assay, Kit
[5] = biological target: Kdr (Homo sapiens, UniProt P35968); experiment: Kinase activity assay, Kdr
[6] = biological target: B-Raf (Homo sapiens, UniProt P15056); experiment: Kinase activity assay, B-Raf; type: biochemical; conditions: read-out: activity toward kinase B-Raf, IC50
[7] = biological target: Btk (Homo sapiens, UniProt Q06187); experiment: Kinase activity assay, Btk
[8] = biological target: B-Raf V600E (Homo sapiens, UniProt P15056, V600E); experiment: Kinase activity assay, B-Raf V600E; type: biochemical; conditions: read-out: activity toward kinase B-Raf V600E, IC50
[9] = biological target: C-Raf (Homo sapiens, UniProt P04049); experiment: Kinase activity assay, C-Raf
[10] = biological target: Fms (Homo sapiens, UniProt P07333); experiment: Kinase activity assay, Fms
[11] = biological target: MAP4K4 (Homo sapiens, UniProt O95819); experiment: Kinase activity assay, MAP4K4

Measured: IC50

Chain of Src (P12931 whole entry): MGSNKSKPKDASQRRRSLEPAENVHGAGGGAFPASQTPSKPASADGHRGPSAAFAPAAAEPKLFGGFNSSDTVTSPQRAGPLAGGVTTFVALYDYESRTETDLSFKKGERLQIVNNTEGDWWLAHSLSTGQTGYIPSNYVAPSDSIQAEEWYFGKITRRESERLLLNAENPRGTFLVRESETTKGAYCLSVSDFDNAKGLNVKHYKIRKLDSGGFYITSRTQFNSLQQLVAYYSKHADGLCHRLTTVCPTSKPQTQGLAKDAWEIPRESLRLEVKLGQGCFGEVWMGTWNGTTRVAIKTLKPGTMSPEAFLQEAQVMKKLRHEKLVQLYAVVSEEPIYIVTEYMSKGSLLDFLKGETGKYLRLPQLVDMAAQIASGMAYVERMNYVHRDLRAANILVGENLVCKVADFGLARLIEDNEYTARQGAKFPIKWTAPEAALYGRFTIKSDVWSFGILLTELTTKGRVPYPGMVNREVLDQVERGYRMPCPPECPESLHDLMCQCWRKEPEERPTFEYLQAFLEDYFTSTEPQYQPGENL
Chain of Btk (Q06187 whole entry): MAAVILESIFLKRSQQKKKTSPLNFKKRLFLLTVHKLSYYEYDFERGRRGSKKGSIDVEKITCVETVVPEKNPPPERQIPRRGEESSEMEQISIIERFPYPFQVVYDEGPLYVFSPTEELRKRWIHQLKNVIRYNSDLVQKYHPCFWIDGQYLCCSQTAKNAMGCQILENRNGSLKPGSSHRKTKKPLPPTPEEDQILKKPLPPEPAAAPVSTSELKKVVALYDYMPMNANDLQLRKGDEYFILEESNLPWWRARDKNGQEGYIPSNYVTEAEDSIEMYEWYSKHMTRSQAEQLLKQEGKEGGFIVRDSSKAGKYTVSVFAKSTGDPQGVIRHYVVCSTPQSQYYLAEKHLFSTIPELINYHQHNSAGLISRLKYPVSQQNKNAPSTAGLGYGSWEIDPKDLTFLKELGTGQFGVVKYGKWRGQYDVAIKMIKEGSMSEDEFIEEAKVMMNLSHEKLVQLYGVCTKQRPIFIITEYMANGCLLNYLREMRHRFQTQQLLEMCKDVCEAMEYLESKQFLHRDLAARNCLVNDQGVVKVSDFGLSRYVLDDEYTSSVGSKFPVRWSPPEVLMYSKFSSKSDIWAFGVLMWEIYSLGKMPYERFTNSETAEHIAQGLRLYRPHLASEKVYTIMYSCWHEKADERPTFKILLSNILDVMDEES
Chain of Fms (P07333 20-972): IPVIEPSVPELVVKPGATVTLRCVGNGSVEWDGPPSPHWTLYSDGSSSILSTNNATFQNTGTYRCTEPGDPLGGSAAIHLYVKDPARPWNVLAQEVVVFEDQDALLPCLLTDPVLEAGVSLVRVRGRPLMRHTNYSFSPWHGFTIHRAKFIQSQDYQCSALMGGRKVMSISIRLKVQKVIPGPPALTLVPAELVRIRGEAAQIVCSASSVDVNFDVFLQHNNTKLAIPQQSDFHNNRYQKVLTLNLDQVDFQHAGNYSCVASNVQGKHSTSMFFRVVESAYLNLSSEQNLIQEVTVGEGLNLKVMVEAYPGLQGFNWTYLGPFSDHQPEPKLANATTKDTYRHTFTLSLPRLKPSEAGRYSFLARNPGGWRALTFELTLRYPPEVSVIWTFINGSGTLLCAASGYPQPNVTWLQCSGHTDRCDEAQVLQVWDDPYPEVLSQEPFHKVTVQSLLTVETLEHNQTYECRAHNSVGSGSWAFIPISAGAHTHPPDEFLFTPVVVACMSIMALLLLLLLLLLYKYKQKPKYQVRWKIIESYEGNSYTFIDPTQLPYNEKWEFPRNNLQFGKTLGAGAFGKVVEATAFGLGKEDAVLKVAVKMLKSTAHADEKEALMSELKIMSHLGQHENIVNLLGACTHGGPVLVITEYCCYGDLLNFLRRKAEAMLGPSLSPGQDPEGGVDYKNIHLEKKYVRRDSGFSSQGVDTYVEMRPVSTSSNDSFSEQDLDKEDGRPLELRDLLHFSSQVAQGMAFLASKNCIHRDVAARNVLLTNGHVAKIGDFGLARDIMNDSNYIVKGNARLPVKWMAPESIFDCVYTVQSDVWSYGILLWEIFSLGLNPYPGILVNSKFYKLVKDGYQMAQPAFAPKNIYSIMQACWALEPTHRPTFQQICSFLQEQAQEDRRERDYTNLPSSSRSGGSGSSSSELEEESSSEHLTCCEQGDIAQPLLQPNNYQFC
Chain of B-Raf V600E (P15056 whole entry V600E): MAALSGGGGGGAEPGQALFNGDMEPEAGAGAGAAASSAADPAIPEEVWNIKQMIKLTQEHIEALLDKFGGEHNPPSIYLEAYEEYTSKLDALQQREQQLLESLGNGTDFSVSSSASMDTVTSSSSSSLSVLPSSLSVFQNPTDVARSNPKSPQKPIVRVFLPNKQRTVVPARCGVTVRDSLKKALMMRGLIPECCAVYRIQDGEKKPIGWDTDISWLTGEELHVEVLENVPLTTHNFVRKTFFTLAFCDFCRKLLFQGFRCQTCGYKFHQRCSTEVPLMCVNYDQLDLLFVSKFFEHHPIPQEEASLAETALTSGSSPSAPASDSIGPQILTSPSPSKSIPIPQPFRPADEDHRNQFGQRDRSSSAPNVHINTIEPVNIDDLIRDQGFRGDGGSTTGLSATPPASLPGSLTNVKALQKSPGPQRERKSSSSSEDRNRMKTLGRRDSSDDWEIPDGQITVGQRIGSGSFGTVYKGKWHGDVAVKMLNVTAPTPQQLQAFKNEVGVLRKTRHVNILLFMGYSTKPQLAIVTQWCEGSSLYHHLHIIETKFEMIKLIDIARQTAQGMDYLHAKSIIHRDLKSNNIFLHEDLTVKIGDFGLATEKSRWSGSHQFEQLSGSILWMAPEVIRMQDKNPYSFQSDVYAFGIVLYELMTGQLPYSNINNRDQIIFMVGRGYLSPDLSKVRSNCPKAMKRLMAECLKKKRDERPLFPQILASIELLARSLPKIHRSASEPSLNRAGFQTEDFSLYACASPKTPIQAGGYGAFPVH
Chain of PI3Kα (P42336 whole entry): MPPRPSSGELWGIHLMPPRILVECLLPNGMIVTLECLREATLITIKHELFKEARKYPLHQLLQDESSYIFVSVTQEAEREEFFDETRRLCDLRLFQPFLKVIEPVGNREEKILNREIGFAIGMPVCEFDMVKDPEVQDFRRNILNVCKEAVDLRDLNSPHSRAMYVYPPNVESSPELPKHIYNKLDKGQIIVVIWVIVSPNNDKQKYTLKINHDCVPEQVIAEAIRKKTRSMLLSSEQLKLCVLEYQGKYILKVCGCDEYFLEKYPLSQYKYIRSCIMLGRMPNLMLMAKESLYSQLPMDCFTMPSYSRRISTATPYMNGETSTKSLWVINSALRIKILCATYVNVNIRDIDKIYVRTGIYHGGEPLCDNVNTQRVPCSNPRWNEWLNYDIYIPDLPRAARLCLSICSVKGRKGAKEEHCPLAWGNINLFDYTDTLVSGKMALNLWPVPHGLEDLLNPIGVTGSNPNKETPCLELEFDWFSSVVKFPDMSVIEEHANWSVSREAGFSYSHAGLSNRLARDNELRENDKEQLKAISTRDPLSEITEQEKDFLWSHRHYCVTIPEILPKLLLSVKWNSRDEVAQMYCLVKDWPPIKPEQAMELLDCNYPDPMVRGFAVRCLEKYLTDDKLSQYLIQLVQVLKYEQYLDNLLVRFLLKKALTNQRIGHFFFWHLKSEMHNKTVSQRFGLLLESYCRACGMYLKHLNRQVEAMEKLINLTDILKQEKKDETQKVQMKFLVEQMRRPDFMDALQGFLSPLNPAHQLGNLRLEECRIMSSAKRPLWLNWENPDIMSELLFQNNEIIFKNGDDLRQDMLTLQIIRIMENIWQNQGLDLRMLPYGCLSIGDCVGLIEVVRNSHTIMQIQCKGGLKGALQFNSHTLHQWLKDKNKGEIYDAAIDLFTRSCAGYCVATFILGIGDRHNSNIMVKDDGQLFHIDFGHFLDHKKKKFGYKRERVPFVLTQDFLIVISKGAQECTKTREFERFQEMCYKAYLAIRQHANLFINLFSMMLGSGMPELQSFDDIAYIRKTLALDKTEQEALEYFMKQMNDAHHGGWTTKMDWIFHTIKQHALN
Chain of PI3Kα (P27986 whole entry partner): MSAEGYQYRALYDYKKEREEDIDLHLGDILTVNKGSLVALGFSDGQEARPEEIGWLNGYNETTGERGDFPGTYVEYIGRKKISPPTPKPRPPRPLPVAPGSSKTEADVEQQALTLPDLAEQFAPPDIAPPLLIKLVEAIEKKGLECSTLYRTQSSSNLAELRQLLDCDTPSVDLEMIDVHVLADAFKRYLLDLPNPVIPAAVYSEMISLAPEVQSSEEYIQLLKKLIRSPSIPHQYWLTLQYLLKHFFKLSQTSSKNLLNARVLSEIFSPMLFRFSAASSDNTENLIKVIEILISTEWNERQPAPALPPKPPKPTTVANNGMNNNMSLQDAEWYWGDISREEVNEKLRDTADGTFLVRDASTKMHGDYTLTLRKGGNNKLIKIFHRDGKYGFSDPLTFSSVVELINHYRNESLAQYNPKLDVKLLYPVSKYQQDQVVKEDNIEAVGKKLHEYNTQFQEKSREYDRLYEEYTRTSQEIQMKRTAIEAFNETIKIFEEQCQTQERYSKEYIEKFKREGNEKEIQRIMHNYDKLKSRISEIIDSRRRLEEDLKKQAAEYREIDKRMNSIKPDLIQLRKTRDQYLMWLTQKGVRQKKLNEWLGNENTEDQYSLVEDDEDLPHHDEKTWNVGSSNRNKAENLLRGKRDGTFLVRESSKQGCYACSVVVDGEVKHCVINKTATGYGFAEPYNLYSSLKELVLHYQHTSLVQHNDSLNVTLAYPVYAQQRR
Chain of B-Raf (P15056 whole entry): as the sequence (P15056 whole entry V600E) above, with E600V counted along it

COc1ncc(-c2cnc3[nH]cc(C(=O)c4c(F)ccc(NS(=O)(=O)c5ccccc5F)c4F)c3c2)cn1 [P-2041, N-{2,4-Difluoro-3-[5-(2-methoxy-pyrimidin-5-yl)-1H-pyrrolo[2,3-b]pyridine-3-carbonyl]-phenyl}-2-fluoro-benzenesulfonamide]
not listed: [10] | [11]
≤ 10 µM: all other assays above

COc1ncc(-c2cnc3[nH]cc(C(=O)c4c(F)ccc(NS(=O)(=O)c5cc(F)ccc5F)c4F)c3c2)cn1 [P-2042, N-{2,4-Difluoro-3-[5-(2-methoxy-pyrimidin-5-yl)-1H-pyrrolo[2,3-b]pyridine-3-carbonyl]-phenyl}-2,5-difluoro-benzenesulfonamide]
not listed: [11]
≤ 10 µM: all other assays above

COc1ncc(-c2cnc3[nH]cc(C(=O)c4c(F)ccc(NS(=O)(=O)c5c(F)cccc5F)c4F)c3c2)cn1 [P-2043, N-{2,4-Difluoro-3-[5-(2-methoxy-pyrimidin-5-yl)-1H-pyrrolo[2,3-b]pyridine-3-carbonyl]-phenyl}-2,6-difluoro-benzenesulfonamide]
not listed: [11]
≤ 10 µM: all other assays above

COc1ncc(-c2cnc3[nH]cc(C(=O)c4c(F)ccc(NS(=O)(=O)c5ccc(F)cc5F)c4F)c3c2)cn1 [P-2044, N-{2,4-Difluoro-3-[5-(2-methoxy-pyrimidin-5-yl)-1H-pyrrolo[2,3-b]pyridine-3-carbonyl]-phenyl}-2,4-difluoro-benzenesulfonamide]
not listed: [11]
≤ 10 µM: all other assays above

COc1ncc(-c2cnc3[nH]cc(C(=O)c4c(F)ccc(NS(=O)(=O)c5ccccn5)c4F)c3c2)cn1 [P-2079]
not listed: [4] | [10] | [11]
≤ 10 µM: all other assays above

COc1ncc(-c2cnc3[nH]cc(C(=O)c4c(F)ccc(NS(=O)(=O)c5ncn[nH]5)c4F)c3c2)cn1 [P-2080]
not listed: [4] | [10] | [11]
≤ 10 µM: all other assays above

CS(=O)(=O)Nc1cccc(-c2cnc3[nH]cc(C(=O)c4cc(NS(=O)(=O)c5cccnc5)ccc4F)c3c2)c1 [P-2139, Pyridine-3-sulfonic acid {4-fluoro-3-[5-(3-methanesulfonylamino-phenyl)-1H-pyrrolo[2,3-b]pyridine-3-carbonyl]-phenyl}-amide]
≤ 10 µM: all assays above

CS(=O)(=O)Nc1cccc(-c2cnc3[nH]cc(C(=O)c4cccc(NS(=O)(=O)c5cccnc5)c4)c3c2)c1 [P-2145, Pyridine-3-sulfonic acid {3-[5-(3-methanesulfonylamino-phenyl)-1H-pyrrolo[2,3-b]pyridine-3-carbonyl]-phenyl}-amide]
not listed: [8] | [9]
≤ 10 µM: all other assays above

COc1ncc(-c2cnc3[nH]cc(C(=O)c4c(F)ccc(NS(=O)(=O)C(C)C)c4F)c3c2)cn1 [P-2287, Propane-2-sulfonic acid {2,4-difluoro-3-[5-(2-methoxy-pyrimidin-5-yl)-1H-pyrrolo[2,3-b]pyridine-3-carbonyl]-phenyl}-amide]
not listed: [4] | [10] | [11]
≤ 10 µM: all other assays above

COc1ncc(-c2cnc3[nH]cc(C(=O)c4c(F)ccc(NS(=O)(=O)CC(C)C)c4F)c3c2)cn1 [P-2322, 2-Methyl-propane-1-sulfonic acid {2,4-difluoro-3-[5-(2-methoxy-pyrimidin-5-yl)-1H-pyrrolo[2,3-b]pyridine-3-carbonyl]-phenyl}-amide]
not listed: [11]
≤ 10 µM: all other assays above

CCC(C)S(=O)(=O)Nc1ccc(F)c(C(=O)c2c[nH]c3ncc(-c4cnc(OC)nc4)cc23)c1F (stereo not shown) [P-2323, Butane-2-sulfonic acid {2,4-difluoro-3-[5-(2-methoxy-pyrimidin-5-yl)-1H-pyrrolo[2,3-b]pyridine-3-carbonyl]-phenyl}-amide]
not listed: [4] | [10] | [11]
≤ 10 µM: all other assays above

COc1ncc(-c2cnc3[nH]cc(C(=O)c4c(F)ccc(NS(=O)(=O)C5CCCCC5)c4F)c3c2)cn1 [P-2371, Cyclohexanesulfonic acid {2,4-difluoro-3-[5-(2-methoxy-pyrimidin-5-yl)-1H-pyrrolo[2,3-b]pyridine-3-carbonyl]-phenyl}-amide]
not listed: [11]
≤ 10 µM: all other assays above

COc1ncc(-c2cnc3[nH]cc(C(=O)c4c(F)ccc(NS(=O)(=O)C5CCCC5)c4F)c3c2)cn1 [P-2372, Cyclopentanesulfonic acid {2,4-difluoro-3-[5-(2-methoxy-pyrimidin-5-yl)-1H-pyrrolo[2,3-b]pyridine-3-carbonyl]-phenyl}-amide]
not listed: [10] | [11]
≤ 10 µM: all other assays above

COc1ncc(-c2cnc3[nH]cc(C(=O)c4c(F)ccc(NS(=O)(=O)N(C)C)c4F)c3c2)cn1 [P-2399, N,N-dimethylamino-sulfonic acid {2,4-difluoro-3-[5-(2-methoxy-pyrimidin-5-yl)-1H-pyrrolo[2,3-b]pyridine-3-carbonyl]-phenyl}-amide]
not listed: [4] | [10] | [11]
≤ 10 µM: all other assays above

CCN(CC)S(=O)(=O)Nc1ccc(F)c(C(=O)c2c[nH]c3ncc(-c4cnc(OC)nc4)cc23)c1F [P-2401, N,N-diethylamino-sulfonic acid {2,4-difluoro-3-[5-(2-methoxy-pyrimidin-5-yl)-1H-pyrrolo[2,3-b]pyridine-3-carbonyl]-phenyl}-amide]
not listed: [6] | [10] | [11]
≤ 10 µM: all other assays above
